Reference: PubChem BioAssay (NCI)
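Exposure lasted 48 hours, with cells grown in 96-well plates and compounds tested at five concentrations. Abbreviation: GI50, concentration required for 50% inhibition of growth. TGI: total growth inhibition.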

Legend:
Experiment in all cases: NCI-60 cell line screen, 48 h
MOLT-4 leukemia = system: MOLT-4 leukemia
K-562 leukemia = system: K-562 leukemia
HT29 colon = system: HT29 colon
ACHN renal = system: ACHN renal
TK-10 renal = system: TK-10 renal
M14 melanoma = system: M14 melanoma
CAKI-1 renal = system: CAKI-1 renal
CCRF-CEM leukemia = system: CCRF-CEM leukemia
MALME-3M melanoma = system: MALME-3M melanoma
MCF7 breast = system: MCF7 breast

## O=C(O)c1cc2ccc(Cl)cc2c(O)c1C1=CCCCC1
MOLT-4 leukemia
  TGI: > 100 µM
K-562 leukemia
  TGI: > 100 µM
HT29 colon
  TGI: > 100 µM
ACHN renal
  TGI: > 100 µM
TK-10 renal
  TGI: > 100 µM
M14 melanoma
  TGI: > 100 µM
CAKI-1 renal
  TGI: 96.4 µM
CCRF-CEM leukemia
  TGI: > 100 µM
MALME-3M melanoma
  TGI: > 100 µM

## CCCCCCC1CCCCN1C(c1ccccc1)C(O)c1ccccc1 (stereo not drawn)
MOLT-4 leukemia
  GI50: 4.96 µM
  TGI: 19.4 µM
K-562 leukemia
  GI50: 4.23 µM
  TGI: 21.7 µM
HT29 colon
  GI50: 3.09 µM
  TGI: 12.2 µM
ACHN renal
  GI50: 10 µM
  TGI: 21.6 µM
MCF7 breast
  GI50: 3.78 µM
  TGI: 14.8 µM
TK-10 renal
  GI50: 14.2 µM
  TGI: 27.6 µM
M14 melanoma
  GI50: 2.95 µM
  TGI: 11.4 µM
CAKI-1 renal
  GI50: 3.72 µM
  TGI: 14.6 µM
MALME-3M melanoma
  GI50: 5.37 µM
  TGI: 19.7 µM

## O=C(CC/C(CC(=O)c1ccc(Cl)cc1)=N\O)Nc1cccc(Cl)c1
MOLT-4 leukemia
  TGI: > 100 µM
K-562 leukemia
  TGI: > 100 µM
HT29 colon
  TGI: > 100 µM
ACHN renal
  TGI: > 100 µM
TK-10 renal
  TGI: > 100 µM
M14 melanoma
  TGI: > 100 µM
CAKI-1 renal
  TGI: > 100 µM
CCRF-CEM leukemia
  TGI: > 100 µM
MALME-3M melanoma
  TGI: > 100 µM

## NC(=O)C1C(=O)Oc2cccnc21 (stereo not drawn)
MOLT-4 leukemia
  TGI: > 100 µM
K-562 leukemia
  TGI: > 100 µM
HT29 colon
  TGI: > 100 µM
ACHN renal
  TGI: > 100 µM
TK-10 renal
  TGI: > 100 µM
M14 melanoma
  TGI: > 100 µM
CCRF-CEM leukemia
  TGI: > 100 µM
MALME-3M melanoma
  TGI: > 100 µM

## C=C(/C=C/C=C(\CO)CCC=C(C)C)[C@H]1CCC2([C@H](CCCO)/C(=C(/C)C=O)CC[C@]2(C)O)[C@H]1O (stereo partly drawn)
MOLT-4 leukemia
  TGI: > 100 µM
K-562 leukemia
  TGI: > 100 µM
HT29 colon
  TGI: > 100 µM
ACHN renal
  TGI: > 100 µM
TK-10 renal
  TGI: > 100 µM
M14 melanoma
  TGI: > 100 µM
CAKI-1 renal
  TGI: > 100 µM
CCRF-CEM leukemia
  TGI: > 100 µM
MALME-3M melanoma
  TGI: > 100 µM

## CCOC(=O)C(=O)Nc1nc2ccc(OC)cc2s1
MOLT-4 leukemia
  TGI: > 100 µM
K-562 leukemia
  TGI: > 100 µM
HT29 colon
  TGI: > 100 µM
ACHN renal
  TGI: > 100 µM
TK-10 renal
  TGI: > 100 µM
M14 melanoma
  TGI: > 100 µM
CAKI-1 renal
  TGI: > 100 µM
CCRF-CEM leukemia
  TGI: > 100 µM
MALME-3M melanoma
  TGI: > 100 µM

## CNC(=O)N(CCCCC(NC(C)=O)C(=O)NCc1ccccc1)Cc1ccccc1 (stereo not drawn)
MOLT-4 leukemia
  TGI: > 100 µM
K-562 leukemia
  TGI: > 100 µM
HT29 colon
  TGI: > 100 µM
ACHN renal
  TGI: > 100 µM
TK-10 renal
  TGI: > 100 µM
M14 melanoma
  TGI: > 100 µM
CAKI-1 renal
  TGI: > 100 µM
CCRF-CEM leukemia
  TGI: > 100 µM
MALME-3M melanoma
  TGI: > 100 µM

## CC1(C)N=C(N)N=C(N)N1c1ccc(CCCCCCc2ccc(S(=O)(=O)F)cc2)cc1
K-562 leukemia
  TGI: > 33.3 µM
HT29 colon
  TGI: 17.1 µM
ACHN renal
  TGI: 14.4 µM
MCF7 breast
  TGI: > 32.3 µM
TK-10 renal
  TGI: 15.9 µM
M14 melanoma
  TGI: 28.7 µM
CAKI-1 renal
  TGI: 44.3 µM
MALME-3M melanoma
  TGI: 3.79 µM

## COc1ccc(S(=O)(=O)NNS(C)(=O)=O)cc1OC
MOLT-4 leukemia
  TGI: > 100 µM
K-562 leukemia
  TGI: > 100 µM
HT29 colon
  TGI: > 100 µM
ACHN renal
  TGI: > 100 µM
TK-10 renal
  TGI: > 100 µM
M14 melanoma
  TGI: > 100 µM
CAKI-1 renal
  TGI: > 100 µM
CCRF-CEM leukemia
  TGI: > 100 µM
MALME-3M melanoma
  TGI: > 100 µM

## O=C([CH-]C(=O)c1ccccc1)c1ccccc1.[CH2-]C.[CH2-]C.[Tl+3]
MOLT-4 leukemia
  GI50: 6.63 µM
  TGI: 41.8 µM
K-562 leukemia
  GI50: 9.92 µM
  TGI: 59.6 µM
HT29 colon
  GI50: 26 µM
  TGI: > 100 µM
ACHN renal
  GI50: 24.5 µM
  TGI: 98.7 µM
MCF7 breast
  GI50: 7.73 µM
  TGI: > 100 µM
TK-10 renal
  GI50: 55 µM
  TGI: > 100 µM
M14 melanoma
  GI50: 18.5 µM
  TGI: 68.5 µM
CAKI-1 renal
  GI50: 27.2 µM
  TGI: > 96.3 µM
MALME-3M melanoma
  GI50: 21.3 µM
  TGI: > 76.7 µM

## O=C(/C=N/O)Nc1cccc(Cl)c1I
MOLT-4 leukemia
  TGI: > 100 µM
K-562 leukemia
  TGI: > 100 µM
HT29 colon
  TGI: > 100 µM
ACHN renal
  TGI: > 100 µM
TK-10 renal
  TGI: > 100 µM
M14 melanoma
  TGI: > 100 µM
CAKI-1 renal
  TGI: > 100 µM
CCRF-CEM leukemia
  TGI: > 100 µM
MALME-3M melanoma
  TGI: > 100 µM

## O=C(Nc1c(Cl)cc([N+](=O)[O-])cc1Cl)C(=O)C(C(=O)c1ccncc1)C1OC(=O)c2ccccc21 (stereo not drawn)
MOLT-4 leukemia
  TGI: > 100 µM
K-562 leukemia
  TGI: > 100 µM
HT29 colon
  TGI: > 100 µM
ACHN renal
  TGI: > 100 µM
TK-10 renal
  TGI: > 100 µM
M14 melanoma
  TGI: > 100 µM
CAKI-1 renal
  TGI: > 100 µM
CCRF-CEM leukemia
  TGI: > 100 µM
MALME-3M melanoma
  TGI: > 100 µM

## Nc1cccc(C(=O)/C=C/c2ccccc2O)c1
MOLT-4 leukemia
  TGI: > 100 µM
K-562 leukemia
  TGI: > 100 µM
HT29 colon
  TGI: > 100 µM
ACHN renal
  TGI: > 100 µM
TK-10 renal
  TGI: > 100 µM
M14 melanoma
  TGI: > 100 µM
CAKI-1 renal
  TGI: > 100 µM
CCRF-CEM leukemia
  TGI: > 100 µM
MALME-3M melanoma
  TGI: > 100 µM

## Cc1cc(N(CCC#N)CCC#N)ccc1/C=C1N=C(/C=C\c2ccccc2)N(c2ccc(C(=O)O)cc2)C\1=O
MOLT-4 leukemia
  TGI: > 100 µM
K-562 leukemia
  TGI: > 100 µM
HT29 colon
  TGI: > 100 µM
ACHN renal
  TGI: > 100 µM
TK-10 renal
  TGI: > 100 µM
M14 melanoma
  TGI: > 100 µM
CAKI-1 renal
  TGI: > 100 µM
CCRF-CEM leukemia
  TGI: > 100 µM
MALME-3M melanoma
  TGI: > 100 µM

## COc1ccc(C2C(C(=O)O)=C(COC(C)=O)Oc3cc4c(cc32)OCO4)c(OC)c1 (stereo not drawn)
MOLT-4 leukemia
  TGI: > 100 µM
K-562 leukemia
  TGI: > 100 µM
HT29 colon
  TGI: > 100 µM
ACHN renal
  TGI: > 100 µM
TK-10 renal
  TGI: > 100 µM
M14 melanoma
  TGI: > 100 µM
CAKI-1 renal
  TGI: > 100 µM
CCRF-CEM leukemia
  TGI: > 100 µM
MALME-3M melanoma
  TGI: > 100 µM

## CN(C)CN(C)c1nc(N(C)C)nc(N(C)C)n1
MOLT-4 leukemia
  TGI: > 100 µM
K-562 leukemia
  TGI: > 100 µM
HT29 colon
  TGI: > 100 µM
ACHN renal
  TGI: > 100 µM
TK-10 renal
  TGI: > 100 µM
M14 melanoma
  TGI: > 100 µM
CAKI-1 renal
  TGI: > 100 µM
CCRF-CEM leukemia
  TGI: > 100 µM
MALME-3M melanoma
  TGI: > 100 µM

## Cc1c(C(=O)/C=C/c2ccc3c(c2)OCO3)[n+](=O)c2ccccc2n1[O-]
MOLT-4 leukemia
  TGI: 73.9 µM
K-562 leukemia
  TGI: > 100 µM
HT29 colon
  TGI: 56.4 µM
ACHN renal
  TGI: > 100 µM
TK-10 renal
  TGI: 80.6 µM
M14 melanoma
  TGI: > 100 µM
CAKI-1 renal
  TGI: 85.7 µM
CCRF-CEM leukemia
  TGI: > 100 µM
MALME-3M melanoma
  TGI: > 100 µM

## O=S1(=O)CS(=O)(=O)OCCCCCO1
K-562 leukemia
  TGI: > 100 µM
HT29 colon
  TGI: > 100 µM
ACHN renal
  TGI: > 100 µM
TK-10 renal
  TGI: > 100 µM
M14 melanoma
  TGI: > 100 µM
CAKI-1 renal
  TGI: > 100 µM
CCRF-CEM leukemia
  TGI: > 100 µM
MALME-3M melanoma
  TGI: > 100 µM

## c1ccc2c(c1)n1nnnc1c1nnnn21
MOLT-4 leukemia
  TGI: > 100 µM
K-562 leukemia
  TGI: > 100 µM
HT29 colon
  TGI: > 100 µM
ACHN renal
  TGI: > 100 µM
TK-10 renal
  TGI: > 100 µM
M14 melanoma
  TGI: > 100 µM
CAKI-1 renal
  TGI: > 100 µM
CCRF-CEM leukemia
  TGI: > 100 µM
MALME-3M melanoma
  TGI: > 100 µM

## COc1cc2c(c(OC)c1OC)-c1ccc(SC)c(=O)cc1C(CC(=O)Oc1ccccc1F)C2 (stereo not drawn)
MOLT-4 leukemia
  TGI: > 7.5 µM
K-562 leukemia
  TGI: > 7.5 µM
HT29 colon
  TGI: 0.0324 µM
ACHN renal
  TGI: > 7.5 µM
TK-10 renal
  TGI: > 7.5 µM
M14 melanoma
  TGI: 0.908 µM
CAKI-1 renal
  TGI: > 7.5 µM
CCRF-CEM leukemia
  TGI: > 7.5 µM
MALME-3M melanoma
  TGI: > 7.5 µM

## C=C(c1ccc(C(=O)NCCCn2ccnc2)cc1)c1cc2c(cc1C)C(C)(C)CCC2(C)C
MOLT-4 leukemia
  GI50: 2.65 µM
  TGI: > 100 µM
K-562 leukemia
  GI50: 0.651 µM
  TGI: > 100 µM
HT29 colon
  GI50: 0.509 µM
  TGI: 6.8 µM
ACHN renal
  GI50: 2.16 µM
  TGI: 14.1 µM
MCF7 breast
  GI50: 1.25 µM
  TGI: 13.8 µM
TK-10 renal
  GI50: 2.97 µM
  TGI: 7.87 µM
M14 melanoma
  GI50: 0.0627 µM
  TGI: 2.04 µM
CAKI-1 renal
  GI50: 1.47 µM
  TGI: > 51.2 µM
MALME-3M melanoma
  GI50: 3.2 µM
  TGI: 22.4 µM
